# Assay results as given in patent US9073851B2, “Compositions and methods for treating cancer” (Board of Regents, The University of Texas System, priority 2011, dated 2015).
# Legend:
# MCF7 breast cancer cells = experiment: Acridine orange staining of acidic vesicular organelles (autophagy), FACS; type: cell-based, human; details: for percentage of acridine orange positive cells: flow cytometry, control untreated cells 2%
# Source text: To determine the role of serotonin 5-HT1B receptor in cell survival and the mechanism of growth inhibition induced by HT1B inhibitors we investigated cell death in breast cancer cells. When 5-HT1B was inhibited by either SB224289 or SB216641 we detected marked induction of autophagy (FIG. 28A) as detected by acridine orange staining, apoptosis by Annexin V and necrosis by propidium iodide (PI) staining and FACS analysis (FIG. 28B) in MCF7 breast cancer cells. Induction of acidic vacuoles by acridine orange staining was also observed in MDA-MB231 cells after SB224289 treatment for 72 hours (p<0.05) (FIG. 28C).
# (§1) To detect and quantify acidic vesicular organelles, we stained cells with acridine orange as described previously.^31 The number of acridine orange-positive cells was determined by fluorescence-activated cell sorting (FACS) analysis. Cell morphology was examined using fluorescence microscopy (Nikon, Melville, N.Y.) with the cells remaining in their culture flasks.
# MDA-MB-231 cells [1] = experiment: MTS cell viability/proliferation assay; type: cell-based, human; details: MTS assay, MB-231
# Source text: Viable and dead cells were detected by the trypan blue exclusion assay, the viability and/or proliferation of cells a MTS assay was used [Akar U, et al. Autophagy 2008: 4:669-79].
# Viable and dead cells were detected by the trypan blue exclusion assay, where viable cells (non-stained) with intact membrane are able to exclude the dye, while dead cells take up the coloring blue agent from the media. To quantitatively assess the viability and/or proliferation of cells a MTS assay was used, which incorporates a redox indicator that changes color in response to metabolic activity. To study cell viability in response to CaMK-III siRNA or control siRNA and plasmid encoding CaMK-III or empty plasmid transfection cells were seeded in 96-well plates at a density of 3×10^3 cells per well in 100 μl of medium. Next day the medium was removed and cells were transfected with siRNA at different concentrations in 100 μl of medium plus transfection mix. […] Plates were read at dual wavelengths (570-595 nm) in an Elisa plate reader (Kinetic Microplate Reader, Molecular Devices Corporation, Sunnyvale, Calif.).
# (aka proliferation assay, in this case MTS assay was used. MTS, MTT, XTT all similar assays often used as cell viability/toxicity assay). […] Plates were read at 490 nm wavelength in an Elisa plate reader (Kinetic Microplate Reader, Molecular Devices Corporation, Sunnyvale, Calif.).
# [2] = test system: STAT3, Bcl-2 and PI3K/Akt pathways; experiment: Signaling pathways after SB-224289 in breast cancer cells; type: cell-based; details: preliminary studies
# ERK (p42/p44) and LC3-II = experiment: Western blot of p-ERK and LC3-II after 5-HT1B antagonists; type: cell-based, human; details: for phosphorylation of ERK (p42/p44): Western blot
# Description: After treatment the cells were trypsinized and collected by centrifugation, and whole-cell lysates were obtained using a lysis buffer as described previously [Akar U, et al. Mol Cancer Res 2007: 5:241-249]. Total protein concentration was determined using a DC protein assay kit (Bio-Rad, Hercules, Calif.). Aliquots containing […] of total protein from each sample were subjected to sodium dodecyl sulfate-polyacrylamide gel electrophoresis (SDS-PAGE) with a 4-20% gradient and electrotransferred to nitrocellulose membranes. The membranes were blocked with 5% dry milk in Tris-buffered saline-Tween 20 (TBST), probed with primary antibodies anti EREK1/2 or p-ERK1/2 (Cell signaling), polyclonal LC3 antibody (Novus biologicals, Littleton, Colo.). The antibodies were diluted in TBST containing 2.5% dry milk and incubated at 4 C overnight. After the membranes were washed with TBST, they were incubated with horseradish peroxidase-conjugated anti-rabbit or anti-mouse secondary antibody (Amersham Life Science, Cleveland, Ohio). Mouse anti-actin and donkey anti-mouse secondary antibodies (Sigma Chemical, St. Louis, Mo.) were used to monitor-actin expression to ensure equal loading of proteins. Chemiluminescent detection was performed with Chemi-glow detection reagents (Alpha Innotech, San Leandro, Calif.). The blots were visualized with a FluorChem 8900 imager and quantified by a densitometer using the Alpha Imager application program (Alpha Innotech, San Leandro, Calif.).
# MCF7 cells = experiment: MTS cell viability/proliferation assay; type: cell-based, human
# Source text: (§2) Viable and dead cells were detected by the trypan blue exclusion assay, where viable cells (non-stained) with intact membrane are able to exclude the dye, while dead cells take up the coloring blue agent from the media. To quantitatively assess the viability and/or proliferation of cells a MTS assay was used, which incorporates a redox indicator that changes color in response to metabolic activity. To study cell viability in response to CaMK-III siRNA or control siRNA and plasmid encoding CaMK-III or empty plasmid transfection cells were seeded in 96-well plates at a density of 3×10^3 cells per well in 100 μl of medium. Next day the medium was removed and cells were transfected with siRNA at different concentrations in 100 μl of medium plus transfection mix. Two days after transfection, the medium was removed and replaced by 180 μl of medium plus 20 μl of MTS and the cells were incubated under normal conditions until the color changed. Plates were read at dual wavelengths (570-595 nm) in an Elisa plate reader (Kinetic Microplate Reader, Molecular Devices Corporation, Sunnyvale, Calif.).
# (§3) (aka proliferation assay, in this case MTS assay was used. MTS, MTT, XTT all similar assays often used as cell viability/toxicity assay). Cell viability in response to compounds such as 5NT and KD06 was studied with a tetrazolium/formazan based assay (MTS, Celltiter 96 aqueous one solution cell proliferation assay, Promega, WI) [Akar U, Chaves-Reyez A, Barria g Tari A, Sanguino A, Kondo Y, Kondo S, Arun B, Lopez-Berestein G, Ozpolat B: Silencing of Bcl-2 expression by small interfering RNA induces autophagic cell death in MCF-7 breast cancer cells. Autophagy 2008, 4:669-679, Ozpolat 2007 MCR]. Cells were seeded in 96 wells plates at a density of 1.5 to 3.0×10^3 cells per well in 100 μl of medium. Next day the medium was removed and cells were treated with the drug in 100 μl of medium for 72 hours. Plates were read at 490 nm wavelength in an Elisa plate reader (Kinetic Microplate Reader, Molecular Devices Corporation, Sunnyvale, Calif.).
# MCF7/Dox resistant cells = experiment: MTS cell viability/proliferation assay; type: cell-based, human; details: MTS assay
# Source text: as §2, §3
# MCF7 and MDA-MB231 cells = experiment: Acridine orange autophagy assay with MEK inhibitor PD98059; type: cell-based, human
# Description: as §1
# [3] = mouse, in vivo
# MCF-7 cells [4] = experiment: Clonogenic survival assay; type: cell-based, human; details: various concentrations over two weeks, vs untreated
# Description: (§4) To study the effect of CaMK-III growth of ER(−) and ER(+) breast cancer cells we performed a clonogenic assay, which is based on the ability of a single cell to grow into a colony (Franken N A, et al. Nat Protoc 2006: 1:2315-9), using MDA-MB-231 and MCF-7 cells, respectively. Cells were transfected with either CaMK-III or control siRNA (50 nM) […] over a period of two weeks.
# (§5) This assay is an in vitro cell survival assay based on the ability of a single cell to grow into a colony. Briefly, cells (500 cells/well) were transfected with control siRNA or CaMK-III siRNA every week and grown for 2 to 3 weeks. Cells were stained with crystal violet and colonies were counted. Each experiment was repeated twice.
# To study the effect of 5-HT1B on the survival and colony formation of breast cancer cells a clonogenic survival assay was performed using various concentrations of […] over a period of two weeks. This assay is based on the ability of a single cell to grow into a colony [Franken N A, et al. Nat Protoc 2006: 1:2315-2319]. […] Cell death and detachment as well as reduced cell number was observed.
# This assay is an in vitro cell survival assay based on the ability of a single cell to grow into a colony. […] Cells were stained with crystal violet and colonies cells were counted. […]
# MCF-7 cells [5] = experiment: Apoptosis / cell death in MCF-7 cells (Annexin V, FACS); type: cell-based, human; details: Annexin V, MCF cells
# Description: (§6) Apoptosis was assessed by an Annexin V assay, monitoring PARP and caspase 9 cleavage by Western blot. To provide a comparative assay of apoptosis by Annexin V labeling, tumor cells (1×10^6) treated with CaMK-III siRNA or control siRNA for 24 to 96 hours were harvested and washed with PBS. Cells were resuspended in binding buffer and stained with Annexin V and propidium iodide (PI) according to the manufacturer's protocol (BD Pharmingen Annexin V kit, San Diego, Calif.). Positive cells were detected and quantified by FACS analysis.
# MDA-MB-231 cells [6] = experiment: Annexin V staining and FACS analysis of apoptosis; type: cell-based, human
# Description: To investigate whether inhibition of CaMK-III sensitizes drug (doxorubicin)-resistant MCF7/DoxR and MDA-MB-231 cells to chemotherapy, cells were treated with either CaMK-III (50 nM) or control siRNA (50 nM) for 24 hours and then with doxorubicin (ED50 dose) for 48 hours. The ED50 of doxorubicin was determined from a dose-escalation study in a proliferation assay. […] To determine the percent of cells undergoing apoptosis in response to doxorubicin alone and in combination with CaMK-III siRNA was detected by Annexin V staining and FACS analysis.
# as §6
# [7] = test system: ER+ MCF-7 breast cancer cells; experiment: Cell proliferation on serotonin treatment (cell counting); type: cell-based, human
# breast cancer cells = experiment: Cell viability assay, breast cancer cell panel or cell line not stated; type: cell-based, human
# Source text: as §3
# [8] = test system: 5-HT1B or 5-HT1D receptor; experiment: Effect on cell proliferation after siRNA knockdown of 5-HT1B or 5-HT1D receptor; type: cell-based
# MCF10A = experiment: MTS cell viability assay on normal breast epithelium; type: cell-based, human; details: at IC50 to IC90 doses in breast cancer cells (MCF7)
# Source text: as §3
# 5-HT1B/1D receptor = experiment: cAMP levels; type: cell-based
# MDA-MB-231 cells [9] = experiment: Clonogenic survival assay; type: cell-based, human; details: paclitaxel 2 nM + CaMK-III siRNA
# Description: as §4, §5
# This assay is an in vitro cell survival assay based on the ability of a single cell to grow into a colony. Briefly, cells (500 cells/well) were transfected with different siRNA as described above and at 48 h post-transfection, cells were trypsinized and seeded into 6-well plates in the medium (500 cells/mL). Cells were transfected with control siRNA or CaMK-III siRNA every week and grown for 2 to 3 weeks. Cells were stained with crystal violet and colonies cells were counted. Each group was assayed in triplicate dishes, and each experiment was repeated twice.
compound,measurement,setting,value
Cc1nc(-c2ccc(-c3ccc(C(=O)N4CCc5cc6c(cc54)C4(CCN(C)CC4)CO6)cc3)c(C)c2)no1 [SB224289],incidence of autophagy,MCF7 breast cancer cells; antagonist alone,22.4%
same,percentage of acridine orange positive cells,MCF7 breast cancer cells,23%
same,incidence of autophagy,MCF7 breast cancer cells; with 3-MA,12%
same,inhibition of cell proliferation,MDA-MB-231 cells [1],dose-dependent inhibition
same,"STAT3, Bcl-2 and PI3K/Akt pathways",[2],"inhibits the STAT3 and Bcl-2 pathways, as well as the PI3K/Akt pathway"
same,"LC3-II, marker of autophagy",ERK (p42/p44) and LC3-II; MCF7 and MCF7/Dox-R cells,induction of LC3-II
same,phosphorylation of ERK (p42/p44),ERK (p42/p44) and LC3-II,induced phosphorylation of ERK (p42/p44)
same,EC50,"MCF7 cells; Homo sapiens, MCF7, MCF cells",4.4 µM
same,inhibition of cell proliferation,MCF7 cells; MTS assay,dose-dependent inhibition
same,cell viability,MCF7 cells; antagonist alone,42%
same,cell viability,"MCF7 cells; with 3-MA, p<0.05",61%
same,inhibition of cell proliferation,MCF7/Dox resistant cells,dose-dependent inhibition
same,percent positive cells with autophagy,MCF7 and MDA-MB231 cells; antagonist alone,29.2%
same,percent positive cells with autophagy,MCF7 and MDA-MB231 cells; with ERK inhibitor (MEK inhibitor PD98059),18%
same,toxicity in mice,[3],quite toxic in mice
same,colony formation,MCF-7 cells [4],grew more slowly and produced fewer colonies
same,induction of apoptosis,MCF-7 cells [5],induced apoptosis in a dose dependent manner
COc1cccc2c1C(=O)c1c(O)c3c(c(O)c1C2=O)C[C@@](O)(C(=O)CO)C[C@@H]3O[C@H]1C[C@H](N)[C@H](O)[C@H](C)O1 [doxorubicin],apoptosis induced by doxorubicin (Annexin V positive cells),"MDA-MB-231 cells [6]; doxorubicin alone, 48 h",5%
same,apoptosis induced by doxorubicin (Annexin V positive cells),MDA-MB-231 cells [6]; doxorubicin with CaMK-III siRNA,55%
"NCCc1c[nH]c2ccc(O)cc12 [Serotonin, 5-hydroxytryptamine]",cell proliferation,[7],induced proliferation
CCCCCCCCCCCCOc1ccc2[nH]cc(CCN)c2c1.Cl [KD06],potency relative to 5-NT,breast cancer cells,more potent than 5-NT
same,cell survival (O.D.) in a large panel of breast cancer cells,"breast cancer cells; incl. MDA-468, BT20, MDa-MB231, SKBR3, MDA-MB435, T47D, ZR75.1",effective against almost all breast cancer cell lines
same,effect of compound after knockdown of 5-HT1B or 5-HT1D receptor,[8],blunts the effect
same,toxicity against normal breast epithelium,MCF10A,not toxic
same,cAMP levels,5-HT1B/1D receptor,decrease cAMP levels
CC(=O)O[C@H]1C(=O)[C@@]2(C)[C@H]([C@H](OC(=O)c3ccccc3)[C@]3(O)C[C@H](OC(=O)[C@H](O)[C@@H](NC(=O)c4ccccc4)c4ccccc4)C(C)=C1C3(C)C)[C@]1(OC(C)=O)CO[C@@H]1C[C@@H]2O [paclitaxel],inhibition of colony formation by paclitaxel with CaMK-III siRNA,MDA-MB-231 cells [9],enhances efficacy
COc1ccc(NC(=O)c2ccc(-c3ccc(-c4noc(C)n4)cc3C)cc2)cc1OCCN(C)C [SB216641],percentage of acridine orange positive cells,MCF7 breast cancer cells,17%
same,phosphorylation of ERK (p42/p44),ERK (p42/p44) and LC3-II,induced phosphorylation of ERK (p42/p44)
same,cell viability,MCF7 cells; antagonist alone,31%
same,cell viability,"MCF7 cells; with 3-MA, p<0.05",71%
